The values that follow come from patent US20070078057A1, “Microemulsion formulation” (priority 2005, published 2007).

This data set is described as follows: Maximum concentration of ingredient incorporated into the microemulsion. The format is physicochemical. To be noted: incorporated into the microemulsion formulation of Table 28.

With `CCCCCC` [Hexane], the “Approximate Maximum Concentration” value is given as 2.0.
With `C[C@]12C=CC(=O)C=C1CC[C@@H]1[C@@H]2C(=O)C[C@@]2(C)[C@H]1CC[C@]2(O)C(=O)CO` [Prednisone, reference compound], the “Approximate Maximum Concentration” value is reported as 0.5.
`Cc1ccccc1` [Toluene]: the “Approximate Maximum Concentration” value worked out at 2.0.
Regarding `CC(=O)Oc1c(C)c(C)c2c(c1C)CCC(C)(CCC[C@H](C)CCC[C@H](C)CCCC(C)C)O2` (stereo partly drawn) [Vitamin E, α-Tocopherol acetate, reference compound], the “Approximate Maximum Concentration” value came out at 1.0.
With Xylene, the “Approximate Maximum Concentration” value was determined as 5.0.
